{"source": "patent US7557132B2", "about": "“Compounds useful as pesticides” (Dow AgroSciences LLC, priority 2002, dated 2009)"}
{"smiles": "CC(/C(=C/[N+](=O)[O-])Nc1ccccc1)c1ccc(Cl)nc1", "note": "(stereo not shown) [Compound 45, N-{(Z)-1-[1-(6-chloro-3-pyridinyl)ethyl]-2-nitroethenyl}aniline]", "values": [{"measurement": "melting point", "result": "93 to 95", "unit": "°C"}]}
